In patent US8268827B2, “Pyridazinone derivatives as PARP inhibitors” (Istituto di Ricerche di Biologia Molecolare P. Angeletti …, priority 2007, dated 2012):
Where a name gives a salt, the structure may show the parent alone. Read-outs that look alike come from different tables or passages of the source.

Experiments:
PARP-1 [1] = molecular target: T1, PARP-1 (Homo sapiens, UniProt P09874); experiment: PARP-1 TCA assay (inhibitory activity on human PARP-1); format: biochemical; conditions: human PARP-1, TCA assay
T1 construct: purchased Trevigen 4668-500-01
Experimental: Inhibitory Activity on Human PARP-1
The study was designed to determine the potency of compounds for inhibiting poly(ADP-ribosylation) by hPARP1 upon presentation of a nicked DNA (i.e. Activated Calf Thymus). The IC50 was determined in a TCA assay looking at the incorporation of [^3H]-NAD into the growing Poly-ADP-ribose (PAR) polymers and detection of the radioactivity incorporated in a polymer by scintillation counting.
A 96 wells polypropylene microplate was prepared with serial dilutions of compounds (10 point over a 0.1 nM-50 nM concentration range 5% DMSO, 5 uL) or 5% DMSO. The enzymatic reaction was conducted in the presence of 25 mM Tris-HCl pH8.0, 1 mM MgCl2, 50 mM KCl, 1 mM Spermine, 0.01% Nonidet P-40, 1 mM DTT, 1 ug/ml activated Calf Thymus DNA (Amersham Biosciences 27-4575) and 1 nM of human PARP-1 enzyme (Trevigen 4668-500-01). The reaction was initiated by adding 1 ug/ml Activated Calf Thymus DNA (Amersham Biosciences 27-4575), 0.4 ul (2.2×10^5DPM) of [^3H]-NAD (250uCi/ml, Perkin Elmer NET-443H) and 1.5 uM NAD (Sigma #N-1511) in a total reaction volume of 50 ul. After 2 hours incubation at room temperature, the reaction was stopped by the addition of TCA (50 uL, 20%) and NaPPi (20 mM) and incubated for 10 min over ice. The resulting precipitate was filtered on Unifilter GF/B microplate (Perkin Elmer) and washed four times with 2.5% TCA using Harvester Filtermate 196 (Perkin Elmer). After addition of 50 ul of Microscint 20 (Perkin Elmer) the amount of radioactivity incorporated into the PARP polymers was read for each well on Perkin Elmer Top Count. IC50 was calculated using 4P logistic fitting with ADA software based on the residual enzyme activity in the presence of increasing concentrations of compounds.

[2] = tested on: BRCA-1 silenced HeLa cells (HeLa shBRCA1-GFP); experiment: Proliferation assay in BRCA-1 silenced HeLa cells; format: cell-based; conditions: Homo sapiens; for inhibition at 5 µM: read-out: % inh @ 5 uM (BRCA1-)
Summary of the method: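 Antiproliferative effect was read by Celltiter Blue fluorescence after 168 h of compound treatment at 37° C., 5% CO2. Cells were matched HeLa pairs, BRCA1-shRNA (>80% silenced, GFP) versus non-shRNA vector control, in DMEM with 10% FCS.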

[3] = tested on: ischemia and reperfusion of the heart; conditions: rabbits, cited from earlier work
PARP-1 [4] = molecular target: T1, PARP-1; experiment: PARP-1 SPA assay; format: biochemical
Summary of the method: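 PARP-1 reaction in Tris pH 8 buffer with MgCl2, spermine, KCl, activated calf thymus DNA and a mix of [3H]-NAD, NAD and biotinylated NAD, 2 h at RT. Stopped with EDTA/streptavidin SPA beads and poly(ADP-ribose) incorporation counted by scintillation.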

[5] = BRCA-1 silenced HeLa cells, read-out: BRCA1- CC50
[6] = BRCA1 silenced HeLa cells, 168 hours, read-out: CC50 in the BRCA1 silenced HeLa cells

T1 sequence (P09874 whole entry): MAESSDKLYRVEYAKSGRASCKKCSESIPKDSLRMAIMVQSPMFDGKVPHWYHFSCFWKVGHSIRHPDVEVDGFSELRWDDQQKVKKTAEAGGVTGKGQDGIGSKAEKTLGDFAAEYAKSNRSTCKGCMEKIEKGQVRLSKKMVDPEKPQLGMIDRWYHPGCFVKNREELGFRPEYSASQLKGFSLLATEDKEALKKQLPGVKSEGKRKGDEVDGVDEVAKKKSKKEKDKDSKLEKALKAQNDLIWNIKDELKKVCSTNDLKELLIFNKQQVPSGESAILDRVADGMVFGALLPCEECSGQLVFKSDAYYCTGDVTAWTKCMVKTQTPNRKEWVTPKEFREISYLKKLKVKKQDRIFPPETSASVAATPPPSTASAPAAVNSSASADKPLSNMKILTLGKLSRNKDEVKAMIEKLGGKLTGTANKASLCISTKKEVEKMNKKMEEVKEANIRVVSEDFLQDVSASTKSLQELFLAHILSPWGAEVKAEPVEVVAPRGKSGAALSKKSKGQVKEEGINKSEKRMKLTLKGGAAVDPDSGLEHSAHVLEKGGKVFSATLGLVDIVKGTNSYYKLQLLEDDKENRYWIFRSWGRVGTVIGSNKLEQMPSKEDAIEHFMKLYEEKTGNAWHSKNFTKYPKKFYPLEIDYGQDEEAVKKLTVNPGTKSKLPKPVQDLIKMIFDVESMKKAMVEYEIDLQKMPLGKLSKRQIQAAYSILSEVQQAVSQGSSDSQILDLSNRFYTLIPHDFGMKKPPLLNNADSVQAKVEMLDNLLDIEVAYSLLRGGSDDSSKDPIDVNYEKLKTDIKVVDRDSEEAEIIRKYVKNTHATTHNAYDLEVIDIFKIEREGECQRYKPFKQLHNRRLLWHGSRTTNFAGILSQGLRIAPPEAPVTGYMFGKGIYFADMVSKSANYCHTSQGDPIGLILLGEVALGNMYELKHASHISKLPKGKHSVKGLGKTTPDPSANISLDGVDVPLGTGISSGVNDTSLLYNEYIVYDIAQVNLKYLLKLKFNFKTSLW

Row | SMILES | IC50 (PARP-1 [1]) [nM] | IC50 (PARP-1 [4]) [nM] | CC50 [2, 6] [nM] | other results
1 | Cc1c(Cc2ccc(F)c(C(=O)N3CC=C(c4ccc(F)cc4)CC3)c2)n[nH]c(=O)c1C | 20 |  |  | inhibition at 5 µM ([2]; BRCA-1 silenced HeLa cells): 45%
2 | Oc1cccc2c(O)nccc12 [1,5-dihydroxyisoquinoline] |  |  |  | reduction in infarct size ([3]; single injection 1 mg/kg): 38-48%
3 | Cc1c(Cc2ccc(F)c(C(=O)N3CCN(C4CCCCC4)CC3)c2)n[nH]c(=O)c1C | 7.4 |  |  | CC50 [2, 5]: 400 nM
4 | Cc1c(Cc2ccc(F)c(C(=O)N3CCN(c4ccccc4)C(=O)C3)c2)n[nH]c(=O)c1C [drawing 25] | 1 |  |  | CC50 [2, 5]: 18 nM
5 | Cc1c(Cc2ccc(F)c(C(=O)N3CCN(C4CCCCC4)C(=O)C3)c2)n[nH]c(=O)c1C [drawing 29] | 0.36 |  |  | CC50 [2, 5]: 7 nM
6 | Cc1c(Cc2ccc(F)c(C(=O)N3CCN(c4ccc(F)cc4)CC3)c2)n[nH]c(=O)c1C | 20 |  |  | inhibition at 5 µM ([2]; BRCA-1 silenced HeLa cells): 52%
7 | Cc1c(Cc2ccc(F)c(C(=O)N3CCN(c4ccc(F)cc4)C(=O)C3)c2)n[nH]c(=O)c1C [drawing 26] | 0.87 |  |  | CC50 [2, 5]: 96 nM
8 | NC(=O)c1cccc(N)c1 [3-amino-benzamide] |  |  |  | reduction in infarct size in the heart ([3]; single injection 10 mg/kg, one minute before occlusion or one minute before reperfusion): 32-42%
9 | Cc1c(Cc2ccc(F)c(C(=O)N3CCN(c4cccnc4)C(=O)C3)c2)n[nH]c(=O)c1C [Example 38, 6-{4-Fluoro-3-[(3-oxo-4-pyridin-3-ylpiperazin-1-yl)carbonyl]benzyl}-4,5-dimethylpyridazin-3(2H)-one] |  | < 5 | 50 to 500 | 
10 | CCc1cc(Cc2ccc(F)c(C(=O)N3CCN(C4CCc5ccccc5C4)C(=O)C3)c2)n[nH]c1=O (centres unmarked) [Example 148, 4-Ethyl-6-(4-fluoro-3-{[3-oxo-4-(1,2,3,4-tetrahydronaphthalen-2-yl)piperazin-1-yl]carbonyl}benzyl)pyridazin-3(2H)-one] |  | < 5 | 50 to 500 | 
11 | Cc1c(Cc2ccc(F)c(C(=O)N3CCN(CCc4cccc(F)c4)C(=O)C3)c2)n[nH]c(=O)c1C [Example 59, 6-[4-Fluoro-3-({4-[2-(3-fluorophenyl)ethyl]-3-oxopiperazin-1-yl}carbonyl)benzyl]-4,5-dimethyl-3-oxo-2,3-dihydropyridazin-1-ium trifluoroacetate] |  | < 5 | 50 to 500 | 
12 | Cc1c(Cc2ccc(F)c(C(=O)N3CC(=O)N(C4CCCC4)C(CC(C)C)C3)c2)n[nH]c(=O)c1C (centres unmarked) [Example 185, 6-{3-[(4-Cyclopentyl-3-isobutyl-5-oxopiperazin-1-yl)carbonyl]-4-fluorobenzyl}-4,5-dimethylpyridazin-3(2H)-one] |  | 25 to 150 | < 5000 | 
13 | Cc1c(Cc2ccc(F)c(C(=O)N3CC(=O)N(C4CCCC4)[C@@H](C)C3)c2)n[nH]c(=O)c1C [Example 114, 6-(3-{[(3S)-4-cyclopentyl-3-methyl-5-oxopiperazin-1-yl]carbonyl}-4-fluorobenzyl)-4,5-dimethylpyridazin-3(2H)-one] |  | 5 to 25 | < 50 | 
14 | Cc1c(Cc2ccc(F)c(C(=O)N3CCN(CC4(C)CCCO4)C(=O)C3)c2)n[nH]c(=O)c1C (centres unmarked) [Example 97, 6-[4-fluoro-3-({4-[(2-methyltetrahydrofuran-2-yl)methyl]-3-oxopiperazin-1-yl}carbonyl)benzyl]-4,5-dimethyl-3-oxo-2,3-dihydropyridazin-1-ium trifluoroacetate] |  | 5 to 25 | < 5000 | 
15 | Cc1c(Cc2ccc(F)c(C(=O)N3CCN(C4CCC(F)C4)C(=O)C3)c2)n[nH]c(=O)c1C (centres unmarked) [Example 150, 6-(4-Fluoro-3-{[4-(3-fluorocyclopentyl)-3-oxopiperazin-1-yl]carbonyl}benzyl)-4,5-dimethylpyridazin-3(2H)-one] |  | < 5 | 50 to 500 | 
16 | Cc1c(Cc2ccc(F)c(C(=O)N3CCN(C(C)c4nc(C(C)C)no4)C(=O)C3)c2)n[nH]c(=O)c1C (centres unmarked) [Example 54, 6-[4-Fluoro-3-({4-[1-(3-isopropyl-1,2,4-oxadiazol-5-yl)ethyl]-3-oxopiperazin-1-yl}carbonyl)benzyl]-4,5-dimethyl-3-oxo-2,3-dihydropyridazin-1-ium trifluoroacetate] |  | < 5 | 50 to 500 | 
17 | Cc1c(Cc2ccc(F)c(C(=O)N3CCN(c4cnc5ccccc5c4)C(=O)C3)c2)n[nH]c(=O)c1C [Example 60, 6-{4-Fluoro-3-[(3-oxo-4-quinolin-3-ylpiperazin-1-yl)carbonyl]benzyl}-4,5-dimethylpyridazin-3(2H)-one] |  | < 5 | < 50 | 
